The values that follow come from patent US20240368115A1, “REGULATOR CONTAINING TRICYCLIC DERIVATIVE, PREPARATION METHOD THEREFOR AND APPLICATION THEREOF” (SHUJING BIOPHARMA CO., LTD, priority 2021, published 2024).

One series deals with T1, D2S receptor (Homo sapiens, UniProt P14416).
T1 construct: expressed in transfected cells
Nature of the series: D2S receptor cAMP agonist test. The note with it: HEK293 cell strain stably expressing D2S receptor; for EC50: cAMP, forskolin 5×10^−7 M; for D2S Max Act %: positive control dopamine 1×10^−7 M. The series is classed as cell-based. The source says:
cAMP detection kit was purchased from Cisbio; an HEK293 cell strain stably expressing D2S receptor was constructed by Shanghai Shujing Biopharma Co., Ltd.; dopamine, forskolin, and IBMX were purchased from Sigma; ProxiPlate-384 well plates were purchased from PerkinElmer; HBSS was purchased from Thermo Fisher Scientific.
(§1) • (1) The cultured cells were digested with trypsin, and the cell suspension was washed with HBSS buffer after the digestion was terminated. The medium was removed by centrifugation at 200×g. The pellet was resuspended in an appropriate amount of experimental buffer, and 20 μL of cell suspension was counted using a cell counter and diluted to 0.6×10^6 cells/mL. • (2) 5 μL of cell suspension was added to a ProxiPlate-384 well plate (3×10^3 cells/well). • (3) Test compounds were serially diluted in an experimental buffer, and 5 μL of the mixed solution was transferred to the reaction plate with Bravo.

Another series concerns the target T2, 5-HT1A receptor (Homo sapiens, UniProt P08908).
T2 construct: expressed in transfected cells
T2 sequence (P08908 1-422): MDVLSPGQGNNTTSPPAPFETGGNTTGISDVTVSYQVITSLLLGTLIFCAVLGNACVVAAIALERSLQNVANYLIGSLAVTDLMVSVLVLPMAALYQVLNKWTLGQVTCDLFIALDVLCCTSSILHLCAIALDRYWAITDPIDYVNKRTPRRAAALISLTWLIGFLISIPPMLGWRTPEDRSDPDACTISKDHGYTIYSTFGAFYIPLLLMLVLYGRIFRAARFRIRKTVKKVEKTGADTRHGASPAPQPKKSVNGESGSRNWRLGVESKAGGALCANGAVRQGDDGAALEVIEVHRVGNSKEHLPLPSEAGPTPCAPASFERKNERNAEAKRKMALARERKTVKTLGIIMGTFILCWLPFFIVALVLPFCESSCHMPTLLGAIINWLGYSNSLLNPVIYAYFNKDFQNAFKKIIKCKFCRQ
Nature of the series: 5-HT1A receptor cAMP agonist test. Conditions: HEK293 cell strain stably expressing 5-HT1A receptor; for EC50: cAMP, forskolin 2.5×10^−7 M; for 5-HT1A Max Act %: positive control serotonin 10^−6 M. The series is classed as cell-based.
Source text: • cAMP detection kit was purchased from Cisbio; an HEK293 cell strain stably expressing 5-HT1A receptor was constructed by Shanghai Shujing Biopharma Co., Ltd.; serotonin, forskolin, and IBMX were purchased from Sigma; ProxiPlate-384 well plates were purchased from PerkinElmer; HBSS was purchased from Thermo Fisher Scientific.
as §1, with “0.4×10^6” for “0.6×10^6”, “(2×10^3” for “(3×10^3”

The next series has as its target 5-HT2A receptor (Homo sapiens, UniProt P28223). Nature of the series: Calcium flux test for 5-HT2A receptor. The series is classed as cell-based. The note with it: CHO cell strain stably expressing 5-HT2A receptor; for IC50: calcium flux, antagonism of serotonin; for 5-HT2A Max Inh %: positive control ketanserin 10^−7 M. As to the method:
• Fluo-4 calcium flux detection kit was purchased from Invitrogen; a CHO cell strain stably expressing 5-HT2A receptor was purchased from PerkinElmer; serotonin was purchased from Sigma; ketanserin was purchased from Targetmol; polylysine-coated 384-well plates and 384-well compound plates were purchased from Greiner Bio-One. Molecular Device FLIPR, Agilent Bravo liquid workstation, and Countstar BioTech cell counter.
• (1) The cryopreserved cells were rapidly thawed in a water bath at 37° C., and the cells were resuspended in a plating medium. The cryopreservation solution was removed by centrifugation at 200×g. The pellet was resuspended in an appropriate amount of plating medium, 20 μL of cell suspension was counted using a cell counter, and the cell density was diluted to 1×10^6 cells/mL. • (2) 20 μL of cell suspension was added to a polylysine-coated 384-well plate (2×10^4 cells/well). • (3) The cell plate was incubated in a 37° C./5% CO2 incubator for 16-20 h.
• (1) The cell plate was taken out from the incubator and centrifuged at 100×g to remove the medium. 20 μL of experimental buffer was added, and then 20 μL of 2× fluorescent probe solution was added. […] The cell plate and agonist positive compound plate were placed into the FLIPR instrument, the detection program was run, 10 μL of the diluted compound was transferred from the agonist compound plate to the cell plate, and the fluorescence signal was read. […] The cell plate and test compound plate were placed in the FLIPR instrument, the detection program was run, and 10 μL of the diluted compound was transferred from the test compound plate to the cell plate. […] The test compound plate was then taken out, and the agonist positive compound plate with 6×EC50 concentration was placed.
Inhibition rate (Inhibition %)=(negative control reading value−compound reading value)/(negative control reading value−positive control reading value)×100%
(Calcium assays in cells follow changes in intracellular calcium, usually with a dye or a luminescent sensor.)

The target of another series is T3, D2L receptor (Homo sapiens, UniProt P14416).
T3 construct: expressed in transfected cells
T3 sequence (P14416 whole entry): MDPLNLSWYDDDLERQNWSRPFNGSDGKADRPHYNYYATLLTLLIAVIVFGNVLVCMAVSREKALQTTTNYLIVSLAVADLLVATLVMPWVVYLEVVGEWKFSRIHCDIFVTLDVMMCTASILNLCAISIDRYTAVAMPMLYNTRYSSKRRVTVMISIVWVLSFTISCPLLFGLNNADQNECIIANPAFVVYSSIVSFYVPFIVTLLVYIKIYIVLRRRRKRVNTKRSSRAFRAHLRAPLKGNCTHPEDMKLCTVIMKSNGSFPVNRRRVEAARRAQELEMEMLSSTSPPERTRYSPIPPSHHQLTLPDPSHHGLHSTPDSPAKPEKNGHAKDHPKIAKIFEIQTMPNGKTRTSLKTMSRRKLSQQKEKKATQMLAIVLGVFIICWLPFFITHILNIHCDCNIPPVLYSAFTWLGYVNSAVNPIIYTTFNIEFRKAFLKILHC
Nature of the series: D2L receptor cAMP agonist test. The format is cell-based. Conditions: HEK293 cell strain stably expressing D2L receptor; for EC50: cAMP, forskolin 0.5 μM; for D2L Max Act %: positive control dopamine 1 μM. The procedure: • cAMP detection kit was purchased from Cisbio; an HEK293 cell strain stably expressing D2L receptor was constructed by Shanghai Shujing Biopharma Co., Ltd.; dopamine, forskolin, and IBMX were purchased from Sigma; ProxiPlate-384 well plates were purchased from PerkinElmer; HBSS was purchased from Thermo Fisher Scientific.
• (1) The cryopreserved cells were thawed in a water bath at 37° C., the cell suspension was resuspended in HBSS buffer, and the mixed solution was centrifuged at 750 rpm for 5 min to remove the medium. The pellet was resuspended in an appropriate amount of experimental buffer, and an appropriate amount of cell suspension was diluted to 0.4×10^6 cells/mL. • (2) 5 μL of cell suspension was added to a ProxiPlate-384 well plate (2×10^3 cells/well), and the plate was centrifuged at 1000 rpm for 1 min. • (3) Test compounds were serially diluted in an experimental buffer, and 5 μL of the mixed solution was transferred to the reaction plate with Bravo.

Series [1] can be described thus: Pharmacokinetic test in mice. The series is classed as in vivo. The note with it: male, ICR, mouse, plasma, po, oral intragastric; for AUC(0-inf): read-out: AUC(0-inf); for Cmax: read-out: Cmax. The procedure:
Male ICR mice were administered orally intragastrically, the plasma concentrations of the compounds of the present invention were measured in the mice, the PK parameters were calculated, and the pharmacokinetic evaluation was performed on the compounds of the present invention.
• (1) Test samples: the compounds of the examples of the present invention, self-made. • (2) Test animals: ICR mice, SPF grade, male, Xuzhou Medical University. • (3) Main test instruments:
Drug preparation: according to the weight of the weighed drug, the preparation volume was calculated. 5% of DMSO was added firstly. After the drug was fully dissolved, 95% of 20% aqueous PB-cyclodextrin solution was then added, and the mixture was mixed well for later use.
Administration route: oral intragastric administration. Frequency and duration of administration: single administration.
ICR mice were stratified according to body weight and then randomly divided into groups of 9 mice each, and the mice were fasted overnight prior to the test. The mice were separately administered orally intragastrically. 50 μL of blood was collected from the fundus vein of the mouse at 0 h, 0.083 h, 0.25 h, 0.5 h, 1 h, 2 h, 4 h, 8 h, 12 h, and 24 h (3 time points for each mouse) to a sample tube containing heparin sodium as an anticoagulant, and the tube was placed in wet ice and centrifuged at 4000 r·min^−1 for 10 min. The plasma was separated, and cryopreserved in a refrigerator at −80° C. for testing.
The concentrations of plasma samples were measured by high performance liquid chromatography-tandem mass spectrometry (LC-MS/MS). The retention times of the compounds and internal standard, chromatogram acquisitions, and integrals of chromatograms were processed using the software Analyst (AB SCIEX), and the data statistics were processed using the software Watson LIMS (Thermo Fisher Scientific) or Analyst (AB SCIEX). The concentration of plasma was processed using a non-compartmental model of the pharmacokinetic software WinNonlin™ Version 6.3 (Pharsight, Mountain View, CA), and pharmacokinetic parameters were calculated by a linear log-trapezoidal method.

Like-named read-outs stand apart in the source and are kept apart here.

T1 sequence (P14416 1-414 isoform P14416-2): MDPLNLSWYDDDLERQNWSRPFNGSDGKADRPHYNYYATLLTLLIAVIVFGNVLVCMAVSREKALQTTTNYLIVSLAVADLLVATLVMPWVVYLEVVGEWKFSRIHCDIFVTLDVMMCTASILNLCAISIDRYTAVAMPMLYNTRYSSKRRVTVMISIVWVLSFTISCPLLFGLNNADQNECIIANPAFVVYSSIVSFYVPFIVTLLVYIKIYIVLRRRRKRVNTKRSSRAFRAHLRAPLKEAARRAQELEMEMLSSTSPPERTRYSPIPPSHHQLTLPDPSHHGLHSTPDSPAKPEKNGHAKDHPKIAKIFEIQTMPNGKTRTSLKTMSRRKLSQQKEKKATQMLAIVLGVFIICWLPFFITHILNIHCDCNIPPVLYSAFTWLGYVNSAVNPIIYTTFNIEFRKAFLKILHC
Chain of 5-HT2A receptor (P28223 whole entry): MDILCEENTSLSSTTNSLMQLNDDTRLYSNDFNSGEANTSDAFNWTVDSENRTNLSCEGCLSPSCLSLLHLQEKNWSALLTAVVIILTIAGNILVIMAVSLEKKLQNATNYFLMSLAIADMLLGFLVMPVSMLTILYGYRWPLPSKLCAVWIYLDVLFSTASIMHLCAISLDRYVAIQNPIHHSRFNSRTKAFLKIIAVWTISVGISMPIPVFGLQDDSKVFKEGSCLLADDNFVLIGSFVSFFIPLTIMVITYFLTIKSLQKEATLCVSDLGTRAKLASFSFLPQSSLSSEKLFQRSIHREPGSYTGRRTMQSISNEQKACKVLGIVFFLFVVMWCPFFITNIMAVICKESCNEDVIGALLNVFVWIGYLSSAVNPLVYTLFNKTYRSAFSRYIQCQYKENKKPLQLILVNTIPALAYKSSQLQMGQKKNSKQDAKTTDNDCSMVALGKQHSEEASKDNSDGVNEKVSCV

For `O=C1Nc2cc(OCCCCN3CCN(c4cccc5sccc45)CC3)ccc2C2CC12` (stereo not drawn) [Example 42, 5-(4-(4-(Benzo[b]thiophen-4-yl)piperazin-1-yl)butoxy)-1,1a,3,7b-tetrahydro-2H-cyclopropa[c]quinolin-2-one], at D2S receptor, the EC50 is 0.95 nM and the “D2S Max Act %” value was 106.0%. At 5-HT1A receptor, the midpoint of the response, the EC50, lay at 313 nM and the “5-HT1A Max Act %” value is 55.7%. On 5-HT2A receptor, the IC50 is 1690 nM and the “5-HT2A Max Inh %” value is given as 100.6%. In addition, on D2L receptor, the half-maximal effective concentration (EC50) was 0.47 nM and the “D2L Max Act %” value amounted to 32.7%. In addition, in series [1] (5 mg/kg, single dose 5 mg/kg), the half-life was 13 h, the AUC(0-inf) is 11300 ng·h/mL and the Cmax is 687 ng/mL.

Turning to `O=C1Nc2cc(OCCCCN3CCN(c4cccc5c4OC(F)(F)O5)CC3)ccc2C2CC12` (stereo not drawn) [Example 41, 5-(4-(4-(2,2-Difluorobenzo[d][1,3]dioxolan-4-yl)piperazin-1-yl)butoxy)-1,1a,3,7b-tetrahydro-2H-cyclopropa[c]quinolin-2-one], at D2S receptor, the midpoint of the response, the EC50, lay at 0.92 nM and the “D2S Max Act %” value was 115.0%. At 5-HT1A receptor, the EC50 was 50.8 nM and the “5-HT1A Max Act %” value stood at 92.7%. On 5-HT2A receptor, the IC50 was 3350 nM and the “5-HT2A Max Inh %” value is on record as 80.4%. For the same compound, on D2L receptor, the 50% effective concentration (EC50) was determined as 0.97 nM and the “D2L Max Act %” value is recorded as 42.4%. In series [1] (5 mg/kg, single dose 5 mg/kg), the half-life is 8.6 h, the AUC(0-inf) worked out at 9970 ng·h/mL and the Cmax amounted to 971 ng/mL.

As to `O=C1Nc2cc(OCCCCN3CCN(c4cccc5c4CCO5)CC3)ccc2C2CC12` (single isomer, unassigned) [Example 45-P1], on D2S receptor, the EC50 is 1.01 nM and the “D2S Max Act %” value worked out at 106.1%. Moreover, at 5-HT1A receptor, the EC50 was 243 nM and the “5-HT1A Max Act %” value worked out at 56.4%. Besides, at 5-HT2A receptor, the IC50 turned out to be 398 nM and the “5-HT2A Max Inh %” value stood at 99.8%. For the same compound, on D2L receptor, the EC50 amounted to 2.12 nM and the “D2L Max Act %” value is recorded as 28.0%. In addition, in series [1] (5 mg/kg, single dose 5 mg/kg), the half-life was 3.2 h, the AUC(0-inf) was determined as 4770 ng·h/mL and the Cmax is 774 ng/mL.

For the compound `O=C1Nc2cc(OCCCCN3CCN(c4cccc(Cl)c4Cl)CC3)ccc2[C@H]2C[C@@H]12` (single isomer, unassigned) [Example 1-P1], at D2S receptor, the response was half-maximal at 0.94 nM (EC50) and the “D2S Max Act %” value is 111.9%. At 5-HT1A receptor, the response was half-maximal at 1800 nM (EC50) and the “5-HT1A Max Act %” value worked out at 33.9%. For the same compound, on 5-HT2A receptor, the IC50 is 745 nM and the “5-HT2A Max Inh %” value was found to be 100.3%. Besides, at D2L receptor, it took 1.07 nM to reach a half-maximal effect (EC50) and the “D2L Max Act %” value turned out to be 47.7%. In addition, in series [1] (5 mg/kg, single dose 5 mg/kg), the half-life is 34.3 h, the area under the curve AUC(0-inf) came out at 13100 ng·h/mL and the Cmax amounted to 341 ng/mL.

As for `O=C1Nc2cc(OCCCCN3CCN(c4cccc5sc(Cl)cc45)CC3)ccc2C2CC12` (stereo not drawn) [Example 49, 5-(4-(4-(2-Chlorobenzo[b]thiophen-4-yl)piperazin-1-yl)butoxy)-1,1a,3,7b-tetrahydro-2H-cyclopropa[c]quinolin-2-one], at D2S receptor, the EC50 came to 0.99 nM and the “D2S Max Act %” value was determined as 112.6%. Besides, at 5-HT1A receptor, a half-maximal effect (EC50) was put at 128 nM and the “5-HT1A Max Act %” value is recorded as 80.7%. On 5-HT2A receptor, the IC50 was 7400 nM and the “5-HT2A Max Inh %” value is 90.4%. Further, at D2L receptor, the midpoint of the response, the EC50, lay at 0.91 nM and the “D2L Max Act %” value is 56.3%. In series [1] (3 mg/kg, single dose 3 mg/kg), the half-life is 10.5 h, the AUC(0-inf) is 4780 ng·h/mL and the Cmax was 420 ng/mL.

With `O=C1Nc2cc(OCCCCN3CCN(c4cccc5c4CCO5)CC3)ccc2C2CC12` (stereo not drawn) [Example 45, 5-(4-(4-(2,3-Dihydrobenzofuran-4-yl)piperazin-1-yl)butoxy)-1,1a,3,7b-tetrahydro-2H-cyclopropa c quinolin-2-one], at D2S receptor, it took 0.93 nM to reach a half-maximal effect (EC50) and the “D2S Max Act %” value worked out at 105.6%. For the same compound, on 5-HT1A receptor, it took 253 nM to reach a half-maximal effect (EC50) and the “5-HT1A Max Act %” value worked out at 54.7%. Besides, on 5-HT2A receptor, the IC50 turned out to be 460 nM and the “5-HT2A Max Inh %” value came to 100.1%. Besides, at D2L receptor, the EC50 is 0.44 nM and the “D2L Max Act %” value stood at 41.3%. Also, in series [1] (5 mg/kg, single dose 5 mg/kg), the half-life is 6.1 h, the AUC(0-inf) was found to be 9650 ng·h/mL and the Cmax was 1160 ng/mL.

The term EC50 denotes the concentration needed to bring the measured effect to its halfway point. Read a high EC50 as weaker potency. Broadly, the IC50 is the concentration needed to halve the response being measured. What is called half-life is how long it takes for the measured level to halve. Low readings indicate rapid decline, high ones slow decline. The term AUC(0-inf) denotes total exposure, with the tail of the curve extrapolated. As usually defined, the Cmax is the maximum level reached in the sampled fluid or tissue.
